In patent publication EP1331219A1:
Structures can show the parent of a compound that is named as a salt.

How the values were obtained:
Format in all cases: binding, mouse
[1] = system: murine monoclonal antibody 6H5D1C4 (DASM243-6H5D1C4); experiment: Competition ELISA on BSA-Met1 coated plates: cross reactivity with methamphetamine analogs; conditions: methamphetamine recognized more than ecstasy
[2] = target: murine monoclonal antibody DASM243-A10A6A2 (IgG1), raised against TT-Met1; experiment: RIA: affinity determination by competition between labeled and unlabeled metabolite; conditions: purified mAb, calculated by the method of Müller from IC50
[3] = target: murine monoclonal antibody DASM243-6H5D1C4 (IgG2b), raised against TT-Met1; experiment: as above; conditions: purified mAb, calculated by the method of Müller from IC50

Row | SMILES | recognition of methamphetamine relative to ecstasy [1] [times] | Ka [2] [M⁻¹] | Ka [3] [M⁻¹]
1 | CN[C@@H](C)Cc1ccccc1 [Methamphetamine, methamphetamine] | 10 |  | 
2 | CNC(C)Cc1ccccc1 (stereo not drawn) [methamphetamine oxalate] |  | 5.58e+06 | 2.58e+08
